The values below come from patent US20230146923A1, “COMPOSITIONS AND METHODS FOR INHIBITION AND TARGETING OF P97” (California Institute of Technology, priority 2021, published 2023).

SMILES strings stand for the structures. Like-named read-outs stand apart in the source and are kept apart here.

Test [1] concerns cyclin D1. Conditions: Parisi et al. [71]; cited from earlier work.
Test [2] deals with cyclin D1. The test is described as follows: Cyclin D1 level and degradation (co-treatment, CHX chase). Type of test: cell-based. The settings on record: HCT116, 6 hours; MG132 1 μM, CB-5083 2 μM, Baf A1 10 μM. The procedure: FIGS. 12A-12C depicts Western blots detecting the effects of p97 inhibitors and MG132 on cell cycle proteins in HT29 and HCT116 cells. […] Then, 50 μM of CHX was added and cells were collected at 0 h, 0.5 h, and 1 h. FIG. 12C depicts half-life of cyclin D1 in HCT116 cells. HCT116 cells were pre-treated with 5 μM of CB-5083 or DMSO for 30 minutes before adding 50 μM of CHX, and cells were collected at 0, 10, 20, 30 min (n=3), * indicates p<0.05 according to unpaired t-test.
(§1) The concentration of MG132, CB-5083 and Baf A1 was 1 μM, 2 μM and 10 μM, respectively. […] FIGS. 13D-13E depict the half-life of Securin in HCT116 cells. HCT116 cells were treated with 1 μM of MG132, 2 μM of CB-5083, 1 μM of MG132 plus 2 μM of CB-5083 or DMSO. […] Cells were pretreated with […] for 1 h. […] For FIGS. 13B-13G, D, B, M, C and N represents DMSO, Baf A1, MG132, CB-5083 and NMS-873, respectively. Data are shown as mean±SD. Statistical analysis was performed using one-way ANOVA.
Cells were co-treated with CB-5083 and either the proteasome inhibitor MG132 or the autophagy inhibitor Bafilomycin A1 (Baf A1).

In test [3] the test system is HCT116 cells. The test is described as follows: TMT labeling proteomics of HCT116 cells treated with MG132, CB-5083 or NMS-873. Type of test: cell-based. The settings on record: for Log2 FC Baculoviral IAP repeat-containing protein 5 (BIRC5) / Log2 FC Cell division cycle protein 20 homolog (CDC20) / Log2 FC F-box only protein 5 (FBXO5) / Log2 FC G1/S-specific cyclin-D1 (CCND1) / Log2 FC Geminin (GMNN) / Log2 FC M-phase inducer phosphatase 2 (CDC25B) / Log2 FC Mitotic checkpoint serine/threonine-protein kinase BUB1 (BUB1) / Log2 FC Myc proto-oncogene protein (MYC) / Log2 FC Origin recognition complex subunit 6 (ORC6) / Log2 FC Ribonucleoside-diphosphate reductase subunit M2 (RRM2) / Log2 FC Securin (PTTG1): compound vs DMSO; for Four XBP1 activated genes/proteins (DNAJB11, SRPR, SRPRB, SYVN1), Log2FC: HCT116, 24 h of treatment, p<0.05. The procedure: HCT116 cells were treated with 1 μM MG132, 2 μM CB-5083 or 4 μM of NMS-874 for 6 h or 24 h, n=2. […] M, C and N represents MG132, CB-5083 and NMS-873, respectively.
As a step toward understanding the differential effects of inhibiting p97 and the proteasome in cancer treatment, the effect of inhibiting p97 was compared to proteasome inhibition using tandem mass tag (TMT) 16-plexed labelling. This technique allowed for capture of alterations in the proteome after exposure to MG132 (proteasome inhibitor) and p97 inhibitors (CB-5083 and NMS-873). […] Samples were pooled together, fractionated into 8 fractions using high pH reverse chromatography, and analyzed using the highly accurate RTS-SPS-MS3 method.

Test [4] has as its system HCT116 cells. The test can be described thus: Temporal label-free (LFQ) proteomics of HCT116 cells treated with p97 inhibitors. Type of test: cell-based. Conditions: 4 μM UPCDC-30245, 2 μM CB-5083, 4 μM NMS-873. Here is the method: This percentage was calculated by dividing the number of overlapping proteins by the sum of all DE proteins identified by p97 KD and/or inhibitor treatment. HCT116 cells were treated with 4 μM UPCDC-30245, 2 μM CB-5083 or 4 μM of NMS-874 for the indicated time points, n=2.
To explore the temporal proteomic profiles of p97 inhibition, HCT116 cells were treated with DMSO, and p97 inhibitors (CB-5083, NMS-873 or UPCDC-30245) for 2 h, 6 h, 10 h, 18 h, or 24 h in duplicate. […] To compare the proteomic profile of p97 shRNA KD to that of different p97 inhibitors, DE proteins identified through p97 KD were compared with those identified under different inhibitor treatments (p<0.05) at each time point. […] To reveal the cellular effects common to both p97 KD and p97 inhibitors, overlapping DE proteins across different timepoints for each inhibitor treatment were combined.

Test [5] deals with Securin. The test can be described thus: Securin degradation (CHX chase) in HCT116 cells. Type of test: cell-based. The settings on record: HCT116, pretreated with MG132 for 1 h, then 2 μM CB-5083 with 50 μM CHX. The procedure:
as §1

Test [6] has as its system HCT116 cells. Conditions: HCT116, 6 h treatment, 2 μM CB-5083. Here is the method:
as §1

Test [7] deals with Securin. The settings on record: HT29, pretreated with MG132 for 1 h, then 2 μM CB-5083 with 50 μM CHX. The procedure:
as §1

Test [8] relates to HCT116 tumor cells. Conditions: mouse xenograft models implanted with HCT116 tumor cells, ref [22]; cited from earlier work.
In test [9] the test system is HCT116 cells. The test is described as follows: Cell cycle analysis (DNA content). Conditions: HCT116, 24 h. Type of test: cell-based. The procedure:
FIG. 7A depicts cell cycle analysis of HCT116 cells after 24 h of treatments with DMSO, 1 μM of MG132 (MG) or 2 μM of CB-5083. […] Data were from TMT labeling proteomics. M, C and N indicates MG132, CB-5083 and NMS-873 treatment, respectively. […] HCT116 cells were treated for 24 h with DMSO, 1 μM of MG132 (MG), 2 μM of CB-5083 (CB) or 4 μM of NMS-873 (NMS), n=3.

The test system of test [10] is cancer cell proliferation. The settings on record: ref [22]; cited from earlier work.

Turning to `c1ccc(CNc2nc(NCc3ccccc3)c3ccccc3n2)cc1` [DBeQ, N^2,N^4-Bis(phenylmethyl)-2,4-quinazolinediamine], the “Cyclin D1 degradation” value in test [1] was “promotes cyclin D1 degradation”.
With `CO/C1=C\C(C)=C\[C@@H](C)[C@@H](O)[C@@H](C)C/C(C)=C/C=C/[C@H](OC)[C@@H]([C@@H](C)[C@@H](O)[C@H](C)[C@@]2(O)C[C@@H](O)[C@H](C)[C@@H](C(C)C)O2)OC1=O` [Baf A1, Bafilomycin A1], the “Effect on CB-5083 mediated cyclin D1 downregulation (co-treatment)” value in test [2] is listed as “no effect on cyclin D1 levels”.
As for `Cc1cc(OCc2nnc(SC3CCCC3)n2-c2cccnc2)ccc1-c1ccc(S(C)(=O)=O)cc1` [NMS-873, 3-[3-cyclopentylsulfanyl-5-[[3-methyl-4-(4-methylsulfonylphenyl)phenoxy]methyl]-1,2,4-triazol-4-yl]pyridine], in test [3] (HCT116, 6 h treatment), the “Log2 FC Baculoviral IAP repeat-containing protein 5 (BIRC5)” value is reported as −0.5, the “Log2 FC Cell division cycle protein 20 homolog (CDC20)” value was −0.6, the “Log2 FC F-box only protein 5 (FBXO5)” value was −1.1 and the “Log2 FC G1/S-specific cyclin-D1 (CCND1)” value is −1.8. In test [3] (HCT116, 6 h treatment), the “Log2 FC Geminin (GMNN)” value was −0.6, the “Log2 FC M-phase inducer phosphatase 2 (CDC25B)” value is −1.6, the “Log2 FC Mitotic checkpoint serine/threonine-protein kinase BUB1 (BUB1)” value is reported as −0.4 and the “Log2 FC Myc proto-oncogene protein (MYC)” value is listed as −1.1. Further, in test [3] (HCT116, 6 h treatment), the “Log2 FC Origin recognition complex subunit 6 (ORC6)” value is reported as −0.5, the “Log2 FC Ribonucleoside-diphosphate reductase subunit M2 (RRM2)” value is reported as −0.3 and the “Log2 FC Securin (PTTG1)” value is −1.2. For the same compound, the “Four XBP1 activated genes/proteins (DNAJB11, SRPR, SRPRB, SYVN1), Log2FC” value in test [3] was “significantly upregulated”. Besides, in test [3] (HCT116, 24 h treatment), the “Log2 FC Baculoviral IAP repeat-containing protein 5 (BIRC5)” value was −2.0, the “Log2 FC Cell division cycle protein 20 homolog (CDC20)” value is −2.8, the “Log2 FC F-box only protein 5 (FBXO5)” value was −2.4 and the “Log2 FC G1/S-specific cyclin-D1 (CCND1)” value was −3.2. Moreover, in test [3] (HCT116, 24 h treatment), the “Log2 FC Geminin (GMNN)” value is on record as −1.8, the “Log2 FC M-phase inducer phosphatase 2 (CDC25B)” value is given as −2.2, the “Log2 FC Mitotic checkpoint serine/threonine-protein kinase BUB1 (BUB1)” value is given as −2.1 and the “Log2 FC Myc proto-oncogene protein (MYC)” value is listed as −1.1. In addition, in [3] (HCT116, 24 h treatment), the “Log2 FC Origin recognition complex subunit 6 (ORC6)” value was −0.6, the “Log2 FC Ribonucleoside-diphosphate reductase subunit M2 (RRM2)” value is given as −2.7 and the “Log2 FC Securin (PTTG1)” value is −2.9. The “UPR proteins and those linked to protein processing in the ER” value (“UPR proteins and those linked” below) in test [4] is listed as “upregulated”.
Consider `Cc1cc2c(C(N)=O)cccc2n1-c1nc2c(c(NCc3ccccc3)n1)COCC2` [CB-5083], for which, in test [5], the “Degradation of Securin after MG132 pretreatment” value is given as “slightly accelerated the degradation of Securin”. For the same compound, the “RNA level of CDC20” value in [6] was “downregulated”. Also, the “Degradation of Securin after MG132 pretreatment” value in [7] is listed as “slightly accelerated the degradation of Securin”. In test [3] (HCT116, 6 h treatment), the “Log2 FC Baculoviral IAP repeat-containing protein 5 (BIRC5)” value is reported as −0.5, the “Log2 FC Cell division cycle protein 20 homolog (CDC20)” value is −0.4, the “Log2 FC F-box only protein 5 (FBXO5)” value is −0.8 and the “Log2 FC G1/S-specific cyclin-D1 (CCND1)” value is listed as −1.4. Besides, in [3] (HCT116, 6 h treatment), the “Log2 FC Geminin (GMNN)” value is recorded as −0.4, the “Log2 FC M-phase inducer phosphatase 2 (CDC25B)” value was −1.1, the “Log2 FC Mitotic checkpoint serine/threonine-protein kinase BUB1 (BUB1)” value is −0.3 and the “Log2 FC Myc proto-oncogene protein (MYC)” value is given as −0.5. In addition, in test [3] (HCT116, 6 h treatment), the “Log2 FC Origin recognition complex subunit 6 (ORC6)” value is −0.4, the “Log2 FC Ribonucleoside-diphosphate reductase subunit M2 (RRM2)” value is −0.2 and the “Log2 FC Securin (PTTG1)” value was −0.9. In addition, the “Four XBP1 activated genes/proteins (DNAJB11, SRPR, SRPRB, SYVN1), Log2FC” value in [3] is on record as “significantly upregulated”. Also, in test [3] (HCT116, 24 h treatment), the “Log2 FC Baculoviral IAP repeat-containing protein 5 (BIRC5)” value was −0.8, the “Log2 FC Cell division cycle protein 20 homolog (CDC20)” value is given as −1.5, the “Log2 FC F-box only protein 5 (FBXO5)” value is −1.0 and the “Log2 FC G1/S-specific cyclin-D1 (CCND1)” value is −2.0. In test [3] (HCT116, 24 h treatment), the “Log2 FC Geminin (GMNN)” value is on record as −1.1, the “Log2 FC M-phase inducer phosphatase 2 (CDC25B)” value is −1.6, the “Log2 FC Mitotic checkpoint serine/threonine-protein kinase BUB1 (BUB1)” value is −1.1 and the “Log2 FC Myc proto-oncogene protein (MYC)” value was −0.7. In [3] (HCT116, 24 h treatment), the “Log2 FC Origin recognition complex subunit 6 (ORC6)” value was −0.3, the “Log2 FC Ribonucleoside-diphosphate reductase subunit M2 (RRM2)” value was −1.1 and the “Log2 FC Securin (PTTG1)” value is reported as −1.9. Further, the “UPR proteins and those linked” value in [4] is “upregulated”. For the same compound, the Tumor growth result in test [8] was “efficacious in inhibiting tumor growth”. In addition, in test [9], the “Potency in reducing G0/G1 and increasing G2/M distribution compared to MG132” value is reported as “less potent”. For the same compound, in test [9] (1 μM MG132, 2 μM CB-5083), the “Distribution of cells in the G0/G1 phase” value is listed as “reduced distribution in the G0/G1 phase”. The Cancer cell proliferation result in [10] is “strongly inhibited cancer cell proliferation”.
Regarding `CC(C)N1CCN(CCNC2CCN(c3cccc(-c4cc5cc(F)ccc5[nH]4)c3)CC2)CC1` [UPCDC-30245, 1-(3-(5-Fluoro-1H-indol-2-yl)phenyl)-N-(2-(4-isopropylpiperazin-1-yl)ethyl)piperidin-4-amine], in [4], the “UPR proteins and those linked” value is recorded as “not”.
